Holding throughout (type): functional, cell-based
Assay [1] relates to A549. The experiment in a line: Antiproliferative activity against human A549 cells after 72 hrs by sulforhodamine B assay. The conditions noted are these: A549, 72 h. Background: Sulforhodamine B stains cellular protein and so reports cell mass.
The subject of assay [2] is MDA-MB-231. The experiment in a line: Antiproliferative activity against human MDA-MB-231 cells after 72 hrs by sulforhodamine B assay. The conditions noted are these: MDA-MB-231, 72 h.
Assay [3] relates to SNU-638. The experiment in a line: Antiproliferative activity against human SNU638 cells after 72 hrs by sulforhodamine B assay. The conditions noted are these: SNU-638, 72 h.
Assay [4] relates to MCF7. Briefly: Antiproliferative activity against human MCF7 cells after 72 hrs by sulforhodamine B assay. The conditions noted are these: MCF7, 72 h.
Assay [5] concerns SK-HEP1. Briefly: Antiproliferative activity against human SKHEP1 cells after 72 hrs by sulforhodamine B assay. The conditions noted are these: SK-HEP1, 72 h.
For assay [6], the system named is HCT-116. The experiment in a line: Antiproliferative activity against human HCT116 cells after 72 hrs by sulforhodamine B assay. The conditions noted are these: HCT-116, 72 h.

The text below walks through data of ChEMBL document CHEMBL4219088, “Novel 4-aminoquinazoline derivatives induce growth inhibition, cell cycle arrest and apoptosis via PI3Kα inhibition” (Bioorg Med Chem, 2018).

For orientation: IC50 means the concentration that gives 50% inhibition.

As to `COc1ncc(-c2ccc3ncnc(NCCCN4CCOCC4)c3c2)cc1NS(=O)(=O)c1ccc(F)cc1F`, the concentration for half-maximal inhibition (IC50) in assay [1] was found to be 9.82 µM; in assay [2], 8.96 µM; in assay [3], 4.52 µM; in assay [4], 13.5 µM; in assay [5] it was 13.4 µM; in assay [6] it was 18.8 µM.
`COc1ncc(-c2ccc3ncnc(NCCCN(C)C)c3c2)cc1NS(=O)(=O)c1ccc(F)cc1F`: the IC50 in assay [1] was 2.78 µM; in assay [2], 1.54 µM; in assay [3] it was 1.26 µM; in assay [4], 3.66 µM; in assay [5] it was 4.68 µM; in assay [6], 2.2 µM.
Take `CCCCS(=O)(=O)Nc1cc(-c2ccc3ncnc(NCCN4CCOCC4)c3c2)cnc1OC`: the IC50 in assay [1] stood at 1.56 µM; in assay [2] it was 0.42 µM; in assay [3] it was 0.61 µM; in assay [4] it was 10.8 µM; in assay [5], 0.44 µM; in assay [6], 0.59 µM.
Turning to `Cn1c(=O)n(-c2ccc(C(C)(C)C#N)cc2)c2c3cc(-c4cnc5ccccc5c4)ccc3ncc21` [DACTOLISIB], in assay [2], the IC50 was found to be 0.18 µM.
As for `COc1ncc(-c2ccc3ncnc(NCCN4CCOCC4)c3c2)cc1NS(=O)(=O)c1ccc(F)cc1F`, the IC50 in assay [1] was 0.62 µM; in assay [2], 0.38 µM; in assay [3], 3.96 µM; in assay [4], 28.9 µM; in assay [5], 0.84 µM; in assay [6], 2.74 µM.
For `CCCCS(=O)(=O)Nc1cc(-c2ccc3ncnc(NCc4ccncc4)c3c2)cnc1OC`, the IC50 in assay [1] came out at 9.42 µM; in assay [2], 4.32 µM; in assay [3] it was 6.66 µM; in assay [4], 18.7 µM; in assay [5], 8.98 µM; in assay [6] it was 5.72 µM.
For `COc1ncc(-c2ccc3ncnc(NCCN(C)C)c3c2)cc1NS(=O)(=O)c1ccc(F)cc1F`, the IC50 amounted to 0.94 µM in assay [1]; 0.71 µM in assay [2]; 0.62 µM in assay [3]; 1.02 µM in assay [4]; 4.72 µM in assay [5]; 1.44 µM in assay [6].
Turning to `CCCCS(=O)(=O)Nc1cc(-c2ccc3ncnc(NCCCN4CCOCC4)c3c2)cnc1OC`, the IC50 in assay [1] came to 3.14 µM; in assay [2] it was 2.58 µM; in assay [3] it was 0.98 µM; in assay [4], 4.59 µM; in assay [5], 1.14 µM; in assay [6] it was 1.74 µM.
Regarding `CCCCS(=O)(=O)Nc1cc(-c2ccc3ncnc(NCCCN(C)C)c3c2)cnc1OC`, the IC50 in assay [1] turned out to be 3.52 µM; in assay [2] it was 0.88 µM; in assay [3] it was 1.26 µM; in assay [4], 4.73 µM; in assay [5] it was 0.86 µM; in assay [6], 0.49 µM.
In the case of `COc1ncc(-c2ccc3ncnc(NCCN(C)C)c3c2)cc1NS(C)(=O)=O`, the IC50 in assay [1] turned out to be 4.12 µM; in assay [2], 2.32 µM; in assay [3], 0.41 µM; in assay [4], 14.7 µM; in assay [5], 12.6 µM; in assay [6], 13.5 µM.
For `COc1ncc(-c2ccc3ncnc(NCc4ccncc4)c3c2)cc1NS(=O)(=O)c1ccc(F)cc1F`, the IC50 in assay [1] was determined as 11.4 µM; in assay [2] it was 9.71 µM; in assay [3], 6.21 µM; in assay [4], 22.5 µM; in assay [5], 12.4 µM; in assay [6], 17.6 µM.
On to `COc1ncc(-c2ccc3ncnc(NCCN(C)C)c3c2)cc1NS(=O)(=O)c1ccc(F)cc1`, for which the IC50 in assay [1] is 2.42 µM; in assay [2] it was 1.22 µM; in assay [3], 1.21 µM; in assay [4] it was 1.23 µM; in assay [5], 9.5 µM; in assay [6], 3.2 µM.
